This assay has as its target recombinant Human Phosphodiesterase B2 (PDE4B2) (Homo sapiens, UniProt Q07343). The assay can be described thus: Human Phosphodiesterase B2 Alpha Screen Assay. The following applies: cAMP substrate, Alpha Screen cAMP kit, 60 minutes at room temperature. Type of assay: biochemical. Summed up:
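Recombinant human PDE4B2 preincubated 15 min at RT with compound in 50 mM Tris pH 7.5, 8.3 mM MgCl2, 1.7 mM EGTA, 0.01% Brij35, then reacted with cAMP for 60 min at RT. Stopped with EDTA; AlphaScreen beads with biotinylated cAMP incubated 5 h in the dark before reading. IC50 from curve fitting.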
recombinant Human Phosphodiesterase B2 (PDE4B2), sequence (Q07343 1-564 isoform Q07343-2): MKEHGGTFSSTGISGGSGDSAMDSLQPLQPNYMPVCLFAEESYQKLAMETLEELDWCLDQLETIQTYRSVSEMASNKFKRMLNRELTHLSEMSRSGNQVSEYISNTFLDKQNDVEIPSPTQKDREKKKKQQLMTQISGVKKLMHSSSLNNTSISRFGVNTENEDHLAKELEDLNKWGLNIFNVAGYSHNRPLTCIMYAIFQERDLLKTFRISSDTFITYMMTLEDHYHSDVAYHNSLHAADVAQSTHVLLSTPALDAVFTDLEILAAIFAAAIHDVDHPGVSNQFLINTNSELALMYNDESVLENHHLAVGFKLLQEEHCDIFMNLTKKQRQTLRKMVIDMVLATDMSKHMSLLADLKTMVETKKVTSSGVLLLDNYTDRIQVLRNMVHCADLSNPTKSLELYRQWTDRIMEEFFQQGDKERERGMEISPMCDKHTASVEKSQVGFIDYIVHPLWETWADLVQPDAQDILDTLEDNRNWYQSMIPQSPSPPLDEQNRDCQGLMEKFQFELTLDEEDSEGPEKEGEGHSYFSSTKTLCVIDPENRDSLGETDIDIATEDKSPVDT
One may read the IC50 as the concentration that inhibits the measured activity by half. Take `COC(=O)c1cccc(-n2c(=O)n([C@H]3CC[C@@H](NC(=O)C4CCC4)CC3)c(=O)c3cc(F)cnc32)c1` [Example 61, methyl 3-[3-{cis-4-[(cyclobutylcarbonyl)amino]cyclohexyl}-6-fluoro-2,4-dioxo-3,4-dihydropyrido[2,3-d]pyrimidin-1(2H)-yl]benzoate]: the concentration for half-maximal inhibition (IC50) was 5.2 nM.
As to `COC(=O)c1cccc(-n2c(=O)n([C@H]3CC[C@@H](NC(=O)C(C)C)CC3)c(=O)c3cc(F)cnc32)c1` [Example 62, methyl 3-[6-fluoro-3-[cis-4-(isobutyrylamino)cyclohexyl]-2,4-dioxo-3,4-dihydropyrido[2,3-d]pyrimidin-1(2H)-yl]benzoate], the IC50 was 6.3 nM.
In the case of `COC(=O)c1cccc(-n2c(=O)n([C@H]3CC[C@@H](NC(=O)CC(C)C)CC3)c(=O)c3cc(F)cnc32)c1` [Example 63, methyl 3-[6-fluoro-3-{cis-4-[(3-methylbutanoyl)amino]cyclohexyl}-2,4-dioxo-3,4-dihydropyrido[2,3-d]pyrimidin-1(2H)-yl]benzoate], the half-inhibitory concentration (IC50) is 5.7 nM.
Turning to `COC(=O)c1cccc(-n2c(=O)n([C@H]3CC[C@@H](NC(=O)C(C)(C)C)CC3)c(=O)c3cc(F)cnc32)c1` [Example 64, methyl 3-[3-{cis-4-[(2,2-dimethylpropanoyl)amino]cyclohexyl}-6-fluoro-2,4-dioxo-3,4-dihydropyrido[2,3-d]pyrimidin-1(2H)-yl]benzoate], the IC50 came out at 4.4 nM.
As to `COCC(=O)N[C@H]1CC[C@@H](n2c(=O)c3cc(F)cnc3n(-c3cccc(C(=O)OC)c3)c2=O)CC1` [Example 65, methyl 3-[6-fluoro-3-{cis-4-[(methoxyacetyl)amino]cyclohexyl}-2,4-dioxo-3,4-dihydropyrido[2,3-d]pyrimidin-1(2H)-yl]benzoate], the IC50 was 11.1 nM.
Take `COC(=O)c1cccc(-n2c(=O)n([C@H]3CC[C@@H](NC(=O)c4cccs4)CC3)c(=O)c3cc(F)cnc32)c1` [Example 66, methyl 3-[6-fluoro-2,4-dioxo-3-{cis-4-[(2-thienylcarbonyl)amino]cyclohexyl}-3,4-dihydropyrido[2,3-d]pyrimidin-1(2H)-yl]benzoate]: the IC50 was 4.8 nM.
The result for `COC(=O)c1cccc(-n2c(=O)n([C@H]3CC[C@@H](NC(C)=O)CC3)c(=O)c3cc(F)cnc32)c1` [Example 67, methyl 3-[3-[cis-4-(acetylamino)cyclohexyl]-6-fluoro-2,4-dioxo-3,4-dihydropyrido[2,3-d]pyrimidin-1(2H)-yl]benzoate] reads 21.2 nM.
Turning to `COC(=O)c1cccc(-n2c(=O)n([C@H]3CC[C@@H](NC(=O)c4cc5ccccn5n4)CC3)c(=O)c3cc(F)cnc32)c1` [Example 68, methyl 3-[6-fluoro-2,4-dioxo-3-{cis-4-[(pyrazolo[1,5-a]pyridin-2-ylcarbonyl)amino]cyclohexyl}-3,4-dihydropyrido[2,3-d]pyrimidin-1(2H)-yl]benzoate], the IC50 came to 0.6 nM.
As to `COC(=O)c1cccc(-n2c(=O)n([C@H]3CC[C@@H](NC(=O)c4cn5ccccc5n4)CC3)c(=O)c3cc(F)cnc32)c1` [Example 69, methyl 3-[6-fluoro-3-{cis-4-[(imidazo[1,2-a]pyridin-2-ylcarbonyl)amino]cyclohexyl}-2,4-dioxo-3,4-dihydropyrido[2,3-d]pyrimidin-1(2H)-yl]benzoate], the IC50 came to 1 nM.
On to `COC(=O)c1cccc(-n2c(=O)n([C@H]3CC[C@@H](NC(=O)C4CC4)CC3)c(=O)c3cc(F)cnc32)c1` [Example 70, methyl 3-[3-{cis-4-[(cyclopropylcarbonyl)amino]cyclohexyl}-6-fluoro-2,4-dioxo-3,4-dihydropyrido[2,3-d]pyrimidin-1(2H)-yl]benzoate], for which the IC50 was found to be 6.6 nM.
With `CS(=O)(=O)c1cccc(-n2c(=O)n([C@H]3CC[C@@H](NC(=O)C4CC4)CC3)c(=O)c3cc(F)cnc32)c1` [Example 71, N-{cis-4-[6-fluoro-1-[3-(methylsulfonyl)phenyl]-2,4-dioxo-1,4-dihydropyrido[2,3-d]pyrimidin-3(2H)-yl]cyclohexyl}cyclopropanecarboxamide] the figure was 41.2 nM.
Take `Cc1ccc(O)c(C(=O)N[C@H]2CC[C@@H](n3c(=O)c4cc(F)cnc4n(-c4ccc(F)c(F)c4)c3=O)CC2)c1` [Example 72, N-{cis-4-[1-(3,4-difluorophenyl)-6-fluoro-2,4-dioxo-1,4-dihydropyrido[2,3-d]pyrimidin-3(2H)-yl]cyclohexyl}-2-hydroxy-5-methylbenzamide]: the IC50 was 2.3 nM.
As to `COC(=O)c1cccc(-n2c(=O)n([C@H]3CC[C@@H](NC(=O)C4CCN(C)CC4)CC3)c(=O)c3cc(F)cnc32)c1` [Example 73, methyl 3-[6-fluoro-3-(cis-4-{[(1-methylpiperidin-4-yl)carbonyl]amino}cyclohexyl)-2,4-dioxo-3,4-dihydropyrido[2,3-d]pyrimidin-1(2H)-yl]benzoate], the IC50 was 62.6 nM.
With `COC(=O)c1cccc(-n2c(=O)n([C@H]3CC[C@@H](NC(=O)c4ccc(CN(C)C)o4)CC3)c(=O)c3cc(F)cnc32)c1` [Example 74, methyl 3-[3-[cis-4-({5-[(dimethylamino)methyl]-2-furoyl}amino)cyclohexyl]-6-fluoro-2,4-dioxo-3,4-dihydropyrido[2,3-d]pyrimidin-1(2H)-yl]benzoate], the IC50 was found to be 5.1 nM.
With `COC(=O)c1cccc(-n2c(=O)n([C@H]3CC[C@@H](NC(=O)C4CCCCC4)CC3)c(=O)c3cc(F)cnc32)c1` [Example 75, methyl 3-[3-{cis-4-[(cyclohexylcarbonyl)amino]cyclohexyl}-6-fluoro-2,4-dioxo-3,4-dihydropyrido[2,3-d]pyrimidin-1(2H)-yl]benzoate] the figure was 2.6 nM; with `O=C(c1n[nH]c2ccccc12)N1CCC(n2c(=O)c3cc(F)cnc3n(-c3ccc(F)c(F)c3)c2=O)CC1` [Example 76, 1-(3,4-difluorophenyl)-6-fluoro-3-[1-(1H-indazol-3-ylcarbonyl)piperidin-4-yl]pyrido[2,3-d]pyrimidine-2,4(1H,3H)-dione], 9.5 nM.
Consider `O=C([C@H](O)c1ccccc1)N1CCC(n2c(=O)c3cc(F)cnc3n(-c3ccc(F)c(F)c3)c2=O)CC1` [Example 77, 1-(3,4-difluorophenyl)-6-fluoro-3-{1-[(2R)-2-hydroxy-2-phenylacetyl]piperidin-4-yl}pyrido[2,3-d]pyrimidine-2,4(1H,3H)-dione], for which the half-inhibitory concentration (IC50) is 147 nM.
Turning to `O=C(c1cc(CO)ccc1O)N1CCC(n2c(=O)c3cc(F)cnc3n(-c3ccc(F)c(F)c3)c2=O)CC1` [Example 78, 1-(3,4-difluorophenyl)-6-fluoro-3-{1-[2-hydroxy-5-(hydroxymethyl)benzoyl]piperidin-4-yl}pyrido[2,3-d]pyrimidine-2,4(1H,3H)-dione], the IC50 came out at 293 nM.
As to `O=C(c1n[nH]c2ccccc12)N1CC[C@@H](n2c(=O)c3cc(F)cnc3n(-c3ccc(F)c(F)c3)c2=O)C1` [Example 79, 1-(3,4-difluorophenyl)-6-fluoro-3-[(3R)-1-(1H-indazol-3-ylcarbonyl)pyrrolidin-3-yl]pyrido[2,3-d]pyrimidine-2,4(1H,3H)-dione], the IC50 amounted to 15.4 nM.
Turning to `O=C([C@H](O)c1ccccc1)N1CC[C@@H](n2c(=O)c3cc(F)cnc3n(-c3ccc(F)c(F)c3)c2=O)C1` [Example 80, 1-(3,4-difluorophenyl)-6-fluoro-3-{(3R)-1-[(2R)-2-hydroxy-2-phenylacetyl]pyrrolidin-3-yl}pyrido[2,3-d]pyrimidine-2,4(1H,3H)-dione], the IC50 turned out to be 73.3 nM.
